Data published in patent EP0098577A2, “Drugs for treating diarrhea caused by infection” (HOECHST AKTIENGESELLSCHAFT, priority 1982, dated 1984).
Like-named read-outs stand apart in the source and are kept apart here. One block for each molecule: values may come before it.

Columns and labels:
Assay in all cases: in vitro checkerboard method (Schachbrettmethode): MHK and FIC-Index
Type in all cases: cell-based
[1] = test system: Pseud. aeruginosa ATCC 9027; conditions: Pseudomonas aeruginosa, ATCC9027, in vitro, single substance
From the text: (§1) Zur Untersuchung der erfindungsgemäßen Kombination wurden mit typischen Vertretern der grampositiven und gramnegativen Keimgruppen in vitro Versuche durchgeführt. Mit der für Kombinationsversuche üblichen Methode, der sogenannten "Schachbrettmethode" (vgl. "Antibiotics in Laboratory Medicine", Editor Lorian, Baltimore London 1980, Seiten 300-309), wurden sowohl die minimalen Hemmkonzentrationen (MHK) als auch die Hemmgrenzen in den einzelnen Kombinationen bestimmt. Das Endergebnis wurde als FIC-Index (Fractional Inhibitory Concentration Index) ausgedrückt. Der FIC-Index berechnet sich nach folgender Formel: [formula]
(§2) Hierbei ist A bzw. B die niedrigste Konzentration der Verbindungen A bzw. B, die in Kombination mit der Verbindung B bzw. A eine Hemmwirkung zeigt. Dieser Wert wird durch die MHK der Verbindung A bzw. B dividiert. Der so erhaltene FIC-Index gibt Aufschluß über die Interaktionen von zwei Verbindungen in ihrer antibakteriellen Wirkung. FIC-Index-Zahlen, die kleiner als 1 sind, drücken eine synergistische Wirkung aus. Die mit dieser Methode ermittelten Resultate sind in den nachstehenden Tabellen zusammengestellt.
(§3) In den nachstehenden Tabellen sind in den ersten beiden Spalten die minimalen Hemmkonzentrationen der geprüften Verbindungen in Mikrogramm pro Milliliter aufgeführt. In einigen Fällen sind abweichende Konzentrationseinheiten angegeben, z.B. Nanogramm [ng] oder Milligramm [mg] pro Milliliter. Wenn ein FIC-Index nicht angegeben wurde, so bedeutet dies, daß aufgrund der Unwirksamkeit des einen Wirkstoffes keine Grenze zu ermitteln war.

[2] = test system: Pseud. aeruginosa NCTC 10701; conditions: Pseudomonas aeruginosa, NCTC10701, in vitro, single substance
From the text: as §1, §2, §3

Enterobacter cloacae = conditions: read-out: MHK
From the text: as §1, §2, §3

Pseud. aeruginosa 1771 m = conditions: single substance; for MIC: Pseudomonas aeruginosa, 1771M
From the text: as §1, §2, §3

Strept. faecium D = conditions: Enterococcus faecium, single substance
From the text: as §1, §2, §3

[3] = test system: Klebsiella pneumoniae A 9977
From the text: as §1, §2, §3

Strept. pyogenes A 77 = conditions: Streptococcus pyogenes, A77, single substance
From the text: as §1, §2, §3

[4] = test system: Micrococcus luteus ATCC 9341
From the text: as §1, §2, §3

[5] = test system: Serratia marcescens A 20460; conditions: for MIC: Serratia marcescens
From the text: as §1, §2, §3

Staph. aureus SG 511 = conditions: Staphylococcus aureus, SG511, single substance
From the text: as §1, §2, §3

[6] = test system: Bacillus subtilis ATCC 6633
From the text: as §1, §2, §3

Proteus rettgeri 936 = conditions: single substance; for MIC: Providencia rettgeri, 936, in vitro
From the text: as §1, §2, §3

Salmonella typhimurium = conditions: for MIC: Salmonella enterica, TYPHIMURIUM, read-out: MHK
From the text: as §1, §2, §3

Salmonella oranienburg = conditions: Salmonella enterica, single substance
From the text: as §1, §2, §3

Salmonella paratyphi A = conditions: Salmonella enterica, read-out: MHK
From the text: as §1, §2, §3

Hafnia alvei ATCC 11604 = test system: Hafnia alvei ATCC 11604
From the text: as §1, §2, §3

E. coli 0 86 = conditions: Escherichia coli, 086, single substance, ng per millilitre (b7)
From the text: as §1, §2, §3

E. coli TEM = conditions: Escherichia coli, read-out: MHK
From the text: as §1, §2, §3

E. coli 0 55 = conditions: single substance; for MIC: Escherichia coli, 055, in vitro
From the text: as §1, §2, §3

[7] = test system: Serratia marcescens A 20019; conditions: single substance; for MIC: Serratia marcescens, A20019, in vitro
From the text: as §1, §2, §3

[8] = ATCC9341, in vitro, single substance, Micrococcus luteus ATCC 9341, read-out: MHK
[9] = in vitro, single substance, Salmonella typhimurium

Structure (SMILES): CCn1cc(C(=O)O)c(=O)c2ccc(C)nc21 [Nalidixinsäure]
MIC [1]: 500 µg/mL | MIC [2]: 250 µg/mL | MIC (Enterobacter cloacae): 6.25 µg/mL | MIC (Pseud. aeruginosa 1771 m): 100 µg/mL | MIC (Strept. faecium D): 500 µg/mL | MIC ([3]; Klebsiella pneumoniae, A9977, read-out: MHK): 6.25 µg/mL | MIC (Strept. pyogenes A 77; mg per millilitre (b7)): > 1000 µg/mL | MIC ([4]; Micrococcus luteus, ATCC9341, read-out: MHK): > 1000 µg/mL | MIC ([5]; A20460, read-out: MHK): 6.25 µg/mL | MIC (Staph. aureus SG 511): 50 µg/mL | MIC ([6]; Bacillus subtilis, ATCC6633, read-out: MHK): 6.25 µg/mL

Structure (SMILES): CCn1cc(C(=O)O)c(=O)c2cc3occc3nc21 [OFNC, 5-Äthyl-5,8-dihydro-8-oxofuran(3,2-b)(1,8)-naphthyridin-7-carbonsäure]
MIC (Proteus rettgeri 936; ng per millilitre (b7)): 0.0312 µg/mL | MIC (Strept. faecium D): 31.2 µg/mL | MIC ([3]; A9977, in vitro, single substance, Klebsiella pneumoniae A 9977, ng per millilitre (b7), read-out: MHK): 0.0781 µg/mL | MIC (Strept. pyogenes A 77): 125 µg/mL | MIC (Salmonella typhimurium; in vitro, single substance, Salmonella typhimurium, ng per millilitre (b7)): 0.0781 µg/mL | MIC (Salmonella oranienburg; ng per millilitre (b7)): 0.0781 µg/mL | MIC [4, 8]: 31.2 µg/mL | MIC (Salmonella paratyphi A): 0.0391 µg/mL | MIC (Hafnia alvei ATCC 11604; ATCC11604, in vitro, single substance, Hafnia alvei ATCC 11604, ng per millilitre (b7), read-out: MHK): 0.0391 µg/mL | MIC (E. coli 0 86): 0.0625 µg/mL | MIC ([6]; ATCC6633, in vitro, single substance, Bacillus subtilis ATCC 6633, ng per millilitre (b7), read-out: MHK): 0.0488 µg/mL

Structure (SMILES): CCn1cc(C(=O)O)c(=O)c2cc(F)c(N3CCNCC3)cc21 [Norfloxacin]
MIC (E. coli TEM): 0.0391 µg/mL | MIC (E. coli 0 55; ng per millilitre (b7)): 0.0391 µg/mL | MIC (Proteus rettgeri 936; ng per millilitre (b7)): 0.0781 µg/mL | MIC (Strept. faecium D): 1.25 µg/mL | MIC (Strept. pyogenes A 77): 2.5 µg/mL | MIC (Salmonella typhimurium): 0.0195 µg/mL | MIC (Salmonella oranienburg; ng per millilitre (b7)): 0.0781 µg/mL | MIC ([7]; ng per millilitre (b7)): 0.0781 µg/mL | MIC [4, 8]: 12.5 µg/mL | MIC (Salmonella paratyphi A): 0.0195 µg/mL | MIC (Hafnia alvei ATCC 11604; Hafnia alvei, ATCC11604, read-out: MHK): 0.0195 µg/mL | MIC (E. coli 0 86): 0.0391 µg/mL

Structure (SMILES): CCOc1ccc2nc3cc(N)ccc3c(N)c2c1 [EAL, Ethacridinlactat]
MIC [1]: 12.5 µg/mL | MIC (E. coli TEM): 12.5 µg/mL | MIC (E. coli 0 55): 6.25 µg/mL | MHK (E. coli 0 55; in vitro): 12,5 µg/ml | MIC [2]: 12.5 µg/mL | MIC (Pseud. aeruginosa 1771 m): 31.2 µg/mL | MHK (Pseud. aeruginosa 1771 m): 62,5 µg/ml | MIC (Proteus rettgeri 936): 31.2 µg/mL | MHK (Proteus rettgeri 936; in vitro): 62,5 µg/ml | MIC (Strept. faecium D): 12.5 µg/mL | MIC ([3]; A9977, in vitro, single substance, Klebsiella pneumoniae A 9977, read-out: MHK): 125 µg/mL | MIC (Salmonella typhimurium; [9]): 25 µg/mL | MHK (Salmonella typhimurium; [9]): 50,0 µg/ml | MIC (Salmonella oranienburg): 62.5 µg/mL | MIC ([7]; mg per millilitre (b7)): 1000 µg/mL | MHK ([7]; in vitro, mg per millilitre (b7)): >1,0 mg | MIC [4, 8]: 6.25 µg/mL | MIC (Salmonella paratyphi A): 12.5 µg/mL | MIC ([5]; A20460, in vitro, single substance, Serratia marcescens A 20460, mg per millilitre (b7), read-out: MHK): > 1000 µg/mL | MHK ([5]; in vitro, single substance, Serratia marcescens A 20460, mg per millilitre (b7)): 1,0 mg | MIC (Hafnia alvei ATCC 11604; ATCC11604, in vitro, single substance, Hafnia alvei ATCC 11604, read-out: MHK): 62.5 µg/mL | MIC (Staph. aureus SG 511): 6.25 µg/mL

MIC [1]: 25 µg/mL | MIC [2]: 31.2 µg/mL | MIC (Enterobacter cloacae; in vitro, single substance): 2.5 µg/mL | MIC (Pseud. aeruginosa 1771 m): 50 µg/mL | MIC (Strept. faecium D; mg per millilitre (b7)): > 1000 µg/mL | MIC (Strept. pyogenes A 77; mg per millilitre (b7)): > 1000 µg/mL | MIC ([4]; ATCC9341, in vitro, single substance, Micrococcus luteus ATCC 9341, mg per millilitre (b7), read-out: MHK): > 1000 µg/mL | MIC (Staph. aureus SG 511): 6.25 µg/mL
Structure (SMILES): COn1cc(C(=O)O)c(=O)c2cc3c(cc21)OCO3 [Miloxacin]
